Data taken from patent publication US20230416225A1, “DIAMINOPYRIMIDINE CARBOXAMIDE INHIBITORS OF HPK1” (MERCK SHARP & DOHME LLC, priority 2020, published 2023).

Biological target: T1, Human HPK1, catalytic domain (Homo sapiens, UniProt Q92918)
T1 construct: purchased Carna
T1 sequence (Q92918 1-346): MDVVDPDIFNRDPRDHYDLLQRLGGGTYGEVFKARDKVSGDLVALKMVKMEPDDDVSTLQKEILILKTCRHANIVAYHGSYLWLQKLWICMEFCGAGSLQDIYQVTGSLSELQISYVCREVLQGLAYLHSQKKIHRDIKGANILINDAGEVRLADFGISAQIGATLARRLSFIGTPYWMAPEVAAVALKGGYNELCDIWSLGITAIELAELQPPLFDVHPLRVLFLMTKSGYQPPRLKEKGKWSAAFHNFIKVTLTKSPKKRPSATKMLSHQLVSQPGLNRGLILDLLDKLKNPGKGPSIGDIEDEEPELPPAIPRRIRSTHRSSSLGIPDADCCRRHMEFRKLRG
Assay: HPK1-SLP76 TR-FRET assay
Assay type: biochemical
Conditions: 75 pM HPK1, 10 uM ATP, 10 nM SLP76, 30 min compound pre-incubation

Structure (SMILES)	IC50 [nM]
COc1cc2c(cc1Nc1ncc(C(N)=O)c(NCc3ccccc3C(F)(F)F)n1)CN(C)CC2 [Example 26-21, 2-[(6-methoxy-2-methyl-1,2,3,4-tetrahydroisoquinolin-7-yl)amino]-4-({[2-(trifluoromethyl)phenyl]methyl}amino)pyrimidine-5-carboxamide]	0.22
COc1cc2c(cc1Nc1ncc(C(N)=O)c(NC(C)c3ccccc3C(F)(F)F)n1)CN(C)CC2 (stereo not shown) [Example 26-22, 2-[(6-methoxy-2-methyl-1,2,3,4-tetrahydroisoquinolin-7-yl)amino]-4-({1-[2-(trifluoromethyl)phenyl]ethyl}amino)pyrimidine-5-carboxamide]	1.43
CCOc1ccccc1CNc1nc(Nc2cc3c(cc2OC)CCN(C)C3)ncc1C(N)=O [Example 26-23, 4-{[(2-ethoxyphenyl)methyl]amino}-2-[(6-methoxy-2-methyl-1,2,3,4-tetrahydroisoquinolin-7-yl)amino]pyrimidine-5-carboxamide]	3.69
COc1cc2c(cc1Nc1ncc(C(N)=O)c(NC3CCc4ccc(F)cc43)n1)CN(C)CC2 (stereo not shown) [Example 26-25, 4-[(6-fluoro-2,3-dihydro-1H-inden-1-yl)amino]-2-[(6-methoxy-2-methyl-1,2,3,4-tetrahydroisoquinolin-7-yl)amino]pyrimidine-5-carboxamide]	0.22
COC[C@H]1CCC[C@H]1Nc1nc(Nc2cc3c(cc2OC)CCN(C)C3)ncc1C(N)=O [Example 26-28, 4-{[(1R,2S)-2-(methoxymethyl)cyclopentyl]amino}-2-[(6-methoxy-2-methyl-1,2,3,4-tetrahydroisoquinolin-7-yl)amino]pyrimidine-5-carboxamide]	4.92
COc1cc2c(cc1Nc1ncc(C(N)=O)c(NC3C4CCC3CNC4)n1)CN(C)CC2 (stereo not shown) [Example 26-30, 4-[(3-azabicyclo[3.2.1]octan-8-yl)amino]-2-[(6-methoxy-2-methyl-1,2,3,4-tetrahydroisoquinolin-7-yl)amino]pyrimidine-5-carboxamide]	28.6
COc1cc2c(cc1Nc1ncc(C(N)=O)c(NC3CCc4cccc(OC)c43)n1)CN(C)CC2 (stereo not shown) [Example 26-34, 4-[(7-methoxy-2,3-dihydro-1H-inden-1-yl)amino]-2-[(6-methoxy-2-methyl-1,2,3,4-tetrahydroisoquinolin-7-yl)amino]pyrimidine-5-carboxamide]	9.66
COc1cc2c(cc1Nc1ncc(C(N)=O)c(NCc3cccc(C(F)(F)F)c3)n1)CN(C)CC2 [Example 26-35, 2-[(6-methoxy-2-methyl-1,2,3,4-tetrahydroisoquinolin-7-yl)amino]-4-({[3-(trifluoromethyl)phenyl]methyl}amino)pyrimidine-5-carboxamide]	52.8
COc1cc2c(cc1Nc1ncc(C(N)=O)c(NCc3ccccc3)n1)CN(C)CC2 [Example 26-36, 4-(benzylamino)-2-[(6-methoxy-2-methyl-1,2,3,4-tetrahydroisoquinolin-7-yl)amino]pyrimidine-5-carboxamide]	6.05
COc1cc2c(cc1Nc1ncc(C(N)=O)c(N[C@H]3CCc4ccccc43)n1)CN(C)CC2 [Example 26-37, 4-{[(1S)-2,3-dihydro-1H-inden-1-yl]amino}-2-[(6-methoxy-2-methyl-1,2,3,4-tetrahydroisoquinolin-7-yl)amino]pyrimidine-5-carboxamide]	0.38
COc1cc2c(cc1Nc1ncc(C(N)=O)c(N[C@@H]3CCCC[C@H]3C(C)(C)O)n1)CN(C)CC2 [Example 26-42, 4-{[(1R,2R)-2-(2-hydroxypropan-2-yl)cyclohexyl]amino}-2-[(6-methoxy-2-methyl-1,2,3,4-tetrahydroisoquinolin-7-yl)amino]pyrimidine-5-carboxamide]	205
COc1cc2c(cc1Nc1ncc(C(N)=O)c(N[C@H](CO)c3ccccc3)n1)CN(C)CC2 [Example 26-43, 4-{[(1S)-2-hydroxy-1-phenylethyl]amino}-2-[(6-methoxy-2-methyl-1,2,3,4-tetrahydroisoquinolin-7-yl)amino]pyrimidine-5-carboxamide]	6.59

More lines, now with the values ahead:

IC50 [nM]	Structure (SMILES)
3.31	COc1cc2c(cc1Nc1ncc(C(N)=O)c(N[C@H]3C[C@H]4CC[C@@H](C3)N4C)n1)CN(C)CC2 [Example 26-26, 2-[(6-methoxy-2-methyl-1,2,3,4-tetrahydroisoquinolin-7-yl)amino]-4-{[(1R,3r,5S)-8-methyl-8-azabicyclo[3.2.1]octan-3-yl]amino}pyrimidine-5-carboxamide]
106	COc1cc2c(cc1Nc1ncc(C(N)=O)c(NC3CC4CCC(C3)N4)n1)CN(C)CC2 (stereo not shown) [Example 26-27, 4-[(8-azabicyclo[3.2.1]octan-3-yl)amino]-2-[(6-methoxy-2-methyl-1,2,3,4-tetrahydroisoquinolin-7-yl)amino]pyrimidine-5-carboxamide]
1.43	COc1cc2c(cc1Nc1ncc(C(N)=O)c(N[C@H]3CC[C@H](C)CC3)n1)CN(C)CC2 [Example 26-29, 2-[(6-methoxy-2-methyl-1,2,3,4-tetrahydroisoquinolin-7-yl)amino]-4-[(trans-4-methylcyclohexyl)amino]pyrimidine-5-carboxamide]
5.18	COc1cc2c(cc1Nc1ncc(C(N)=O)c(NC3CCC(OC)CC3)n1)CN(C)CC2 (stereo not shown) [Example 26-31, 4-[(4-methoxycyclohexyl)amino]-2-[(6-methoxy-2-methyl-1,2,3,4-tetrahydroisoquinolin-7-yl)amino]pyrimidine-5-carboxamide]
1.02	COc1cc2c(cc1Nc1ncc(C(N)=O)c(N[C@@H]3CCCC[C@H]3CO)n1)CN(C)CC2 [Example 26-32, 4-{[(1R,2R)-2-(hydroxymethyl)cyclohexyl]amino}-2-[(6-methoxy-2-methyl-1,2,3,4-tetrahydroisoquinolin-7-yl)amino]pyrimidine-5-carboxamide]
0.46	COc1cc2c(cc1Nc1ncc(C(N)=O)c(N[C@@H]3CCCC[C@H]3C(F)F)n1)CN(C)CC2 [Example 26-33, 4-{[(1R,2R)-2-(difluoromethyl)cyclohexyl]amino}-2-[(6-methoxy-2-methyl-1,2,3,4-tetrahydroisoquinolin-7-yl)amino]pyrimidine-5-carboxamide]
1.07	COc1cc2c(cc1Nc1ncc(C(N)=O)c(NC3CCC(F)(F)C3)n1)CN(C)CC2 (stereo not shown) [Example 26-38, 4-[(3,3-difluorocyclopentyl)amino]-2-[(6-methoxy-2-methyl-1,2,3,4-tetrahydroisoquinolin-7-yl)amino]pyrimidine-5-carboxamide]
0.34	C#C[C@H]1CC[C@@H](Nc2nc(Nc3cc4c(cc3OC)CCN(C)C4)ncc2C(N)=O)CC1 [Example 26-39, 4-[(cis-4-ethynylcyclohexyl)amino]-2-[(6-methoxy-2-methyl-1,2,3,4-tetrahydroisoquinolin-7-yl)amino]pyrimidine-5-carboxamide]
2.08	C#CC[C@H]1CCC[C@H]1Nc1nc(Nc2cc3c(cc2OC)CCN(C)C3)ncc1C(N)=O [Example 26-40, 2-[(6-methoxy-2-methyl-1,2,3,4-tetrahydroisoquinolin-7-yl)amino]-4-{[(1R,2R)-2-(prop-2-yn-1-yl)cyclopentyl]amino}pyrimidine-5-carboxamide]
0.14	COc1cc2c(cc1Nc1ncc(C(N)=O)c(N[C@@H]3CCCC[C@@H]3C)n1)CN(C)CC2 [Example 26-41, 2-[(6-methoxy-2-methyl-1,2,3,4-tetrahydroisoquinolin-7-yl)amino]-4-{[(1R,2S)-2-methylcyclohexyl]amino}pyrimidine-5-carboxamide]
